These results are taken from PubChem BioAssay AID330 (DTP/NCI, 2004).

SMILES strings stand for the structures. Values joined by “and” are separate entries in the source; they are usually repeats but may differ in a detail not shown here. Identical values can stand only once. Inconclusive results and toxic doses are left out.

This experiment has as its system P388 leukemia ip, CD2F1 mice, survival T/C. The experiment is described as follows: NCI In Vivo Anticancer Drug Screen. Data for tumor model P388 Leukemia (intraperitoneal) in CD2F1 (CDF1) mice. The settings on record: endpoint: median survival time, higher = longer survival. In outline: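 Mice carrying the transplanted tumor received test compound or vehicle. Survival was recorded in each group, and the value is the treated-group measurement divided by that of the vehicle-treated control group.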

[1] abbreviates: dose: 60.0 mg/kg/injection, schedule: Q01DX005 (ip), vehicle: Klucel (hydroxypropylcellulose) (HPC).
[2] abbreviates: dose: 120.0 mg/kg/injection, schedule: Q01DX005 (ip), vehicle: Klucel (hydroxypropylcellulose) (HPC).
Setting [3] is: dose: 240.0 mg/kg/injection, schedule: Q01DX005 (ip), vehicle: Klucel (hydroxypropylcellulose) (HPC).
Setting [4] is: dose: 60.0 mg/kg/injection, schedule: Q01DX005 (ip), vehicle: saline with Tween-80.
[5] abbreviates: dose: 120.0 mg/kg/injection, schedule: Q01DX005 (ip), vehicle: saline with Tween-80.
Setting [6] is: dose: 50.0 mg/kg/injection, schedule: Q01DX005 (ip), vehicle: Klucel (hydroxypropylcellulose) (HPC).
Where [7] appears, read: dose: 100.0 mg/kg/injection, schedule: Q01DX005 (ip), vehicle: Klucel (hydroxypropylcellulose) (HPC).
Setting [8] is: dose: 200.0 mg/kg/injection, schedule: Q01DX005 (ip), vehicle: Klucel (hydroxypropylcellulose) (HPC).
[9] abbreviates: dose: 100.0 mg/kg/injection, schedule: Q01DX001 (ip), vehicle: Klucel (hydroxypropylcellulose) (HPC).
The mark [10] stands for this setting: dose: 200.0 mg/kg/injection, schedule: Q01DX001 (ip), vehicle: Klucel (hydroxypropylcellulose) (HPC).
Where [11] appears, read: dose: 400.0 mg/kg/injection, schedule: Q01DX001 (ip), vehicle: Klucel (hydroxypropylcellulose) (HPC).
Setting [12] is: dose: 50.0 mg/kg/injection, schedule: Q01DX009 (ip), vehicle: saline with Tween-80.
Where [13] appears, read: dose: 100.0 mg/kg/injection, schedule: Q01DX009 (ip), vehicle: saline with Tween-80.
The mark [14] stands for this setting: dose: 100.0 mg/kg/injection, schedule: Q01DX001 (ip), vehicle: saline.
The mark [15] stands for this setting: dose: 200.0 mg/kg/injection, schedule: Q01DX001 (ip), vehicle: saline.
[16] abbreviates: dose: 400.0 mg/kg/injection, schedule: Q01DX001 (ip), vehicle: saline.
Setting [17] is: dose: 50.0 mg/kg/injection, schedule: Q01DX009 (ip), vehicle: Klucel (hydroxypropylcellulose) (HPC).
Where [18] appears, read: dose: 100.0 mg/kg/injection, schedule: Q01DX009 (ip), vehicle: Klucel (hydroxypropylcellulose) (HPC).
The mark [19] stands for this setting: dose: 240.0 mg/kg/injection, schedule: Q01DX005 (ip), vehicle: saline with Tween-80.
The mark [20] stands for this setting: dose: 200.0 mg/kg/injection, schedule: Q01DX009 (ip), vehicle: saline with Tween-80.

For `Nc1ccc(S(=O)(=O)Nc2c(N)nc(SCC(=O)O)[nH]c2=O)cc1`, the T/C by setting is: under setting [1], 92 % of control; under setting [2], 96 % of control; under setting [3], 92 % of control.
Take `Nc1ccccc1SC(C[N+](=O)[O-])c1ccc2c(c1)OCO2` (configuration not stated): the T/C under setting [4] is 115 % of control and the T/C under setting [5] was 114 % of control.
As to `CN(C)c1ncnc2c1ccn2COCCO`, the T/C is 100 % of control (dose: 50.0 mg/kg/injection, schedule: Q01DX005 (ip), vehicle: distilled water + alcohol); 98 % of control (dose: 100.0 mg/kg/injection, schedule: Q01DX005 (ip), vehicle: distilled water + alcohol); 107 % of control (dose: 200.0 mg/kg/injection, schedule: Q01DX005 (ip), vehicle: distilled water + alcohol).
For the compound `Cc1nc(N)nc(N)c1CCCc1ccccc1`, the T/C by setting is: (dose: 3.12 mg/kg/injection, schedule: Q01DX001 (ip), vehicle: Klucel (hydroxypropylcellulose) (HPC)) 107 % of control; (dose: 6.25 mg/kg/injection, schedule: Q01DX001 (ip), vehicle: Klucel (hydroxypropylcellulose) (HPC)) 101 % of control; (dose: 12.5 mg/kg/injection, schedule: Q01DX001 (ip), vehicle: Klucel (hydroxypropylcellulose) (HPC)) 105 % of control; (dose: 12.5 mg/kg/injection, schedule: Q01DX001 (ip), vehicle: saline) 100 % of control.
On to `C=C(C)c1nc(N)nc(Nc2ccccc2)n1`, for which the T/C was 103 % of control under setting [6], 111 % of control under setting [7] and 106 % of control under setting [8].
Regarding `CC1N[P+]2(Nc3ccccc3O2)OC1=O` (configuration not stated), the T/C is, setting by setting: under setting [9], 103 % of control; under setting [10], 103 % of control; under setting [11], 106 % of control.
With `COc1cc2c(c(OC)c1OC)-c1ccc(SC)c(=O)cc1C(NC(=S)NC1OCC(OC(C)=O)C(OC(C)=O)C1OC(C)=O)CC2` (configuration not stated), the T/C is, setting by setting: (dose: 25.0 mg/kg/injection, schedule: Q01DX009 (ip), vehicle: saline with Tween-80) 178 % of control and 184 % of control; under setting [12], 200 % of control and 191 % of control; under setting [13], 93 % of control and 101 % of control.
Take `Cc1nc2nc3n(c(=O)c2nc1C)CCS3`: the T/C runs as follows: under setting [14], 103 % of control; under setting [15], 108 % of control; under setting [16], 102 % of control.
Turning to `N#CSc1ccc2nc(NCO)sc2c1`, the T/C runs as follows: under setting [17], 104 % of control; under setting [18], 101 % of control.
Regarding `O=Cc1ccc(N2OC3C(=O)N(c4ccccc4)C(=O)C3C2c2ccc([N+](=O)[O-])cc2)cc1` (configuration not stated), the T/C is 96 % of control under setting [6], 92 % of control under setting [7] and 97 % of control under setting [8].
Regarding `Cc1ccc2c(c1)-c1oc(=O)c(C(N)=O)cc1C(C)O2` (configuration not stated), the T/C is 92 % of control under setting [4], 89 % of control under setting [5] and 87 % of control under setting [19].
Regarding `N#CCSCC(NC(=O)c1ccccc1)C(=O)O` (configuration not stated), the T/C by setting is: (dose: 50.0 mg/kg/injection, schedule: Q01DX005 (ip), vehicle: saline) 100 % of control; (dose: 100.0 mg/kg/injection, schedule: Q01DX005 (ip), vehicle: saline) 87 % of control; (dose: 200.0 mg/kg/injection, schedule: Q01DX005 (ip), vehicle: saline) 97 % of control.
For the compound `CC(C)(C)OC(=O)NC(Cc1cn(Cc2ccccc2)cn1)C(=O)O` (configuration not stated), the T/C runs as follows: under setting [12], 96 % of control; under setting [13], 89 % of control; under setting [20], 108 % of control.
With `C=C1C(=O)C23CCC4C5(C)CCCC4(C4OCCN4C5)C2CCC1C3` (configuration not stated), the T/C runs as follows: (dose: 1.0 mg/kg/injection, schedule: Q01DX009 (ip), vehicle: Klucel (hydroxypropylcellulose) (HPC)) 104 % of control; (dose: 2.0 mg/kg/injection, schedule: Q01DX009 (ip), vehicle: Klucel (hydroxypropylcellulose) (HPC)) 107 % of control; (dose: 4.0 mg/kg/injection, schedule: Q01DX009 (ip), vehicle: Klucel (hydroxypropylcellulose) (HPC)) 95 % of control; (dose: 8.0 mg/kg/injection, schedule: Q01DX009 (ip), vehicle: Klucel (hydroxypropylcellulose) (HPC)) 95 % of control.
Consider `CN(C)C(=S)N1C(=O)C2C3CCC(O3)C2C1=O` (configuration not stated), for which the T/C is 102 % of control (dose: 1.87 mg/kg/injection, schedule: Q01DX005 (ip), vehicle: saline with Tween-80); 100 % of control (dose: 3.75 mg/kg/injection, schedule: Q01DX005 (ip), vehicle: saline with Tween-80); 99 % of control and 98 % of control (dose: 7.5 mg/kg/injection, schedule: Q01DX005 (ip), vehicle: saline with Tween-80).
Take `CCC1OC(=O)C1[Si](C)(C)C` (configuration not stated): the T/C is, setting by setting: under setting [14], 99 % of control; under setting [15], 103 % of control; under setting [16], 103 % of control.
`CCOC(=O)C1=C(N)CCCC1`: the T/C reads like this: (dose: 50.0 mg/kg/injection, schedule: Q01DX001 (ip), vehicle: Klucel (hydroxypropylcellulose) (HPC)) 107 % of control; under setting [9], 96 % of control; under setting [10], 110 % of control; under setting [11], 99 % of control.
With `Cc1cc(=O)oc2cc(OC(=O)Nc3ccc(Cl)cc3C(F)(F)F)ccc12`, the T/C is 90 % of control under setting [4] and 95 % of control under setting [5].
`Cc1ccn2ncnc2c1`: the T/C by setting is: under setting [12], 101 % of control; under setting [13], 102 % of control; under setting [20], 91 % of control.
On to `CC(/C=C/c1cccc(C)c1)=N\NC(N)=O`, for which the T/C is 107 % of control under setting [1], 104 % of control under setting [2] and 115 % of control under setting [3].
On to `CC(O)(c1ccccc1)C(CCl)N1CCCCC1` (configuration not stated), for which the T/C reads like this: under setting [12], 100 % of control; under setting [13], 105 % of control; under setting [20], 105 % of control.
Consider `Nc1c(Cl)c(Cl)c(Br)c(Cl)c1Cl`, for which the T/C under setting [12] is 92 % of control and the T/C under setting [13] is 90 % of control.
With `COC(=O)C(C)n1c(C(C)C)csc1=S` (configuration not stated), the T/C is 111 % of control (dose: 50.0 mg/kg/injection, schedule: Q01DX005 (ip), vehicle: saline with Tween-80); 110 % of control (dose: 100.0 mg/kg/injection, schedule: Q01DX005 (ip), vehicle: saline with Tween-80); 98 % of control (dose: 200.0 mg/kg/injection, schedule: Q01DX005 (ip), vehicle: saline with Tween-80).
With `Clc1cccc(N=Cc2ccc(C=Nc3cccc(Cl)c3Cl)cc2)c1Cl`, the T/C was 94 % of control under setting [17]; 91 % of control under setting [18]; 90 % of control (dose: 200.0 mg/kg/injection, schedule: Q01DX009 (ip), vehicle: Klucel (hydroxypropylcellulose) (HPC)).
As to `CCC(c1ccc(OC)cc1)C(NCC(=O)NNC(=S)NCc1ccccc1)c1ccc(OC)cc1` (configuration not stated), the T/C is, setting by setting: (dose: 100.0 mg/kg/injection, schedule: Q01DX001 (ip), vehicle: saline with Tween-80) 92 % of control; (dose: 200.0 mg/kg/injection, schedule: Q01DX001 (ip), vehicle: saline with Tween-80) 99 % of control; (dose: 400.0 mg/kg/injection, schedule: Q01DX001 (ip), vehicle: saline with Tween-80) 99 % of control.
In the case of `C=CCCCC/C=C/C=C/C#CC#C/C=C/COC(C)=O`, the T/C is, setting by setting: (dose: 12.5 mg/kg/injection, schedule: Q01DX009 (ip), vehicle: Klucel (hydroxypropylcellulose) (HPC)) 100 % of control; (dose: 25.0 mg/kg/injection, schedule: Q01DX009 (ip), vehicle: Klucel (hydroxypropylcellulose) (HPC)) 106 % of control; under setting [17], 106 % of control; under setting [18], 106 % of control.
With `C/C=C(\C#N)SCC`, the T/C was 103 % of control under setting [12], 114 % of control under setting [13] and 109 % of control under setting [20].
Regarding `O=S1(=O)CCCN1c1ccccn1`, the T/C by setting is: under setting [4], 102 % of control; under setting [5], 105 % of control; under setting [19], 101 % of control.
Regarding `O=c1n(-c2ccccc2)c(=O)n2n1C1CC3c4ccccc4C1C32` (configuration not stated), the T/C was 101 % of control (dose: 25.0 mg/kg/injection, schedule: Q01DX005 (ip), vehicle: Klucel (hydroxypropylcellulose) (HPC)); 97 % of control under setting [6]; 94 % of control under setting [7].
